Measured values taken from patent US20180116213A1 (priority 2015, published 2018).

Columns and labels:
plant leaves = experiment: Different tests (leaf disc bioassays, growth chamber trials, field trials), summary; details: herbicide alone at a concentration of 0.1% to 0.25%
Procedure: The activity of the synergistic mixtures to enhance the efficacy of herbicides was tested in vitro by leaf disc bioassays, in growth chamber trials with seedlings and in field trials with various different weed species.
(§1) The plants and leaves were visually assessed for damages by necrosis and chlorosis with the following scale for evaluation: • 0: no damage • +: minor damages • ++: severe damages on up to 50% of leave surface • +++: damages on more than 50% of leave surface • ++++: 100% damage

[1] = tested on: leaf discs of the common lawn weed Plantiago major; experiment: Leaf disc bioassay, Plantiago major leaf discs; design: key to necrosis and chlorosis 18 HAT / necrosis and chlorosis 36 HAT: 0: no damage; +: minor damages; ++: severe damages on up to 50% of leave surface; +++: damages on more than 50% of leave surface; ++++: 100% damage
Source text: as §1
5 mm discs were cut from leaves of plants from Plantiago major, Sesamum indicum, Aegopodium potagraria and Chelidonium majus using a paper punch (5 mm). 3 leaf discs of 5 mm Ø were placed in each well of 12-well microtiter plates. Each well containing 2 ml deionized H2O, or solutions of various concentrations of glyphosate, 2,4-D or synergistic mixtures (M). The plates were incubated under continuous light at 20° C. for the listed times. The leaf discs were visually assessed for chlorosis and necrosis at various times after treatment according to the scale for classification. The visual rating utilized a rating scale from 0 to ++++, where 0=no damage by necrosis/chlorosis, and ++++=total damage by chlorosis/necrosis (see Literature).
3 leaf discs of 5 mm Ø were placed in each well of 12-well microtiter plates. Each well containing 2 ml deionized H2O, or solutions of various concentrations of 2,4-D or synergistic mixture M4 with a 1:1 mixture of citric acid and SDS. The plates were incubated under continuous light at 20° C. for the listed times. The leaf discs were visually assessed for chlorosis and necrosis according to the scale for classification and listed for hours after treatment (HAT). The visual rating utilized a rating scale from 0 to ++++, where 0=no damage by necrosis/chlorosis, and ++++=total damage by chlorosis/necrosis.

[2] = application rate 0.1 % of volume
[3] = application rate 0.25 % of volume
[4] = application rate 0.5 % of volume

For O=C(O)COc1ccc(Cl)cc1Cl [2,4-D, 2,4-dichlorophenoxyacetic acid], the “damage of plant leaves” value (plant leaves) was “did not show any significant damage”, the “necrosis and chlorosis 18 HAT” value [1, 2] was 0 and the “necrosis and chlorosis 36 HAT” value [1, 2] was 0. For the same compound, the “necrosis and chlorosis 18 HAT” value [1, 3] was 0, the “necrosis and chlorosis 36 HAT” value [1, 3] was 0 and the “necrosis and chlorosis 18 HAT” value [1, 4] was 0. The “necrosis and chlorosis 36 HAT” value [1, 4] was 0 and the “damage of the leaf discs” value ([1]; substance alone, conditions of Table 4) was “do not show efficient damage”.
